Reference: US11286278B2, “DPEP-1 binding agents and methods of use” (Arch Biopartners, Inc., priority 2018, dated 2022)
“Also recorded” adds a separate entry of the source. Ends that are not written are not given here.

How the values were obtained:
[1] = tested on: serum cytokines; assay: Plasma cytokine levels after LPS, Luminex Cytokine Arrays; format: in vivo, mouse; conditions: SCID mice, LPS 0.5 mg/kg i.p., 4 hours
Method: 6-8 weeks old SCID mice were given an intraperitoneal injection of LPS (0.5 mg/kg) 5 minutes prior to intravenous injection of LSALT peptide or a control peptide. 4 hours following injection of LPS, blood was collected by cardiac puncture and changes in plasma cytokine levels were assessed using Luminex Cytokine Arrays. Bar graphs show the levels of different inflammatory mediators released in the plasma in the presence or absence of LSALT peptide and control peptide.
6-8 weeks old SCID mice were given an intraperitoneal injection of LPS (0.5 mg/kg) 5 minutes prior to intravenous injection of LSALT peptide or a control peptide. 4 hours following injection of LPS, blood was collected by cardiac puncture and changes in plasma cytokine levels were assessed using Luminex Cytokine Arrays. Bar graphs show the level of the anti-inflammatory cytokine IL-10 released in the plasma in LSALT peptide or control peptide in two independent experiments.

[2] = biological target: T1, rat DPEP-1 (Rattus norvegicus, UniProt P31430); assay: Immunofluorescence binding of Alexa-488 conjugated peptides to Cos-1 cells transfected with rat DPEP-1; conditions: Alexa-488 conjugate, on ice 30 minutes
T1 construct: expressed in transfected cells; host or cells: Cos-1
T1 sequence (P31430 17-384): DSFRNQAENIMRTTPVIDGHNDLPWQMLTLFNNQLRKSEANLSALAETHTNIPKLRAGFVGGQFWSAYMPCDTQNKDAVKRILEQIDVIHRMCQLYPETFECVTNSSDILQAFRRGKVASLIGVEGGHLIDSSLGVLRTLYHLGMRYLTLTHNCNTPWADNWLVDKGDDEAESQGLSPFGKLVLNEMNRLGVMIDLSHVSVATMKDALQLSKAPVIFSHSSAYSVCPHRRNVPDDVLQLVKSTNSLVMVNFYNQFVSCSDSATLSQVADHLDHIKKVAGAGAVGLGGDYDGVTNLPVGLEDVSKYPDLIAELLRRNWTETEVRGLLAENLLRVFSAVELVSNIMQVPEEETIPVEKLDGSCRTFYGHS
Method: (§1) Cos-1 cells were transiently transfected with either 3 or 5 μg of membrane dipeptidase (DPEP-1) cDNA corresponding to the rat (Shown in FIG. 5A), human (Shown in FIG. 5B), or canine (Shown in FIG. 5E) DPEP-1 gene using Lipofectamine 2000 (Invitrogen) reagent in OptiMEM medium. 24 hours after transfection, DPEP-1 expresisng cells were re-seeded on collagen coated (neutralized) wells in 24 well plates and allowed to grow for 24 hours at 37° C. […] Cells were blocked with FBS/NBSA/Tween in PBS for 30 minutes on ice. Cells were then washed with PBS and incubated with Alexa-488 (green) conjugated LSALT, GFE-1, control peptide or DPEP-1 antibody ( 1/100) (Sigma) on ice for 30 minutes. […] After incubation, cells were washed with PBS and treated with 10 mg/ml biotin transfer peptide (LSALT, GFE-1 or Control Peptide (KGAL)] for 10 minutes. Cells were then washed with PBS and biotin transfer was enabled by UV activation of the aryl azide groups for 15 minutes at 363 nm. Residual fluid was removed and monolayers were lysed either with octyl-glucoside/RIPA or 8M urea. Isolated supernatants were rotated with 50 μl of neutr-avidin agarose beads at 4° C. for 24 hours. Beads were washed with corresponding buffers, boiled in Laemmli buffer and analyzed by western blot using a DPEP-1 specific antibody (Proteintech).

[3] = biological target: T2, DPEP1 (Homo sapiens, UniProt P16444); assay: Biotin transfer, neutravidin precipitation and DPEP1 western blot; format: binding; design: expressed in transfected cells; host or cells: Cos-1; conditions: 10 mg/ml biotin transfer peptide, UV activation
T2 sequence (P16444 17-385): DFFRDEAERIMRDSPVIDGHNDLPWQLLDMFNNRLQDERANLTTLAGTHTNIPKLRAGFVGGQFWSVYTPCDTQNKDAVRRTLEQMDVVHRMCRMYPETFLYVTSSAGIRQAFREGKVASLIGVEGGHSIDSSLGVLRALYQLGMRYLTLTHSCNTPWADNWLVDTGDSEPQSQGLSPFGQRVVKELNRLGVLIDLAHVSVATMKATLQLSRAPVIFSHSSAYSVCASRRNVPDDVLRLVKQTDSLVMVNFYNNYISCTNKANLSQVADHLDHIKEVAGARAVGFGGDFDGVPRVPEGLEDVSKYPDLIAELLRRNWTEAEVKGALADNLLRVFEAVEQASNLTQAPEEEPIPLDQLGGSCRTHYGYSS
Method: as §1

[4] = biological target: T2, DPEP1; assay: Immunofluorescence binding of Alexa-488 conjugated peptides to Cos-1 cells transfected with human DPEP-1; design: expressed in transfected cells; host or cells: Cos-1; conditions: Alexa-488 conjugate, on ice 30 minutes
Method: 24 hours after transfection, DPEP-1 expressing cells weer reseeded on 24 well collagen coated (neutralized) plates and allowed to grow for 24 hours at 37° C. […] Cells were blocked with FBS/NBSA/Tween in PBS for 30 minutes on ice. Cells were then washed with PBS and incubated with Alexa-488 (green) conjugated LSALT, GFE-1, control peptide or DPEP-1 antibody ( 1/100) (Sigma) on ice for 30 minutes. After incubation, cells were washed with PBS and stained with DAPI for 4 minutes on ice. Cells were again washed with PBS, fixed using 4% paraformaldehyde and immunofluoresence microscopy was performed to assess binding. Proteins from human DPEP-1 transfected cells were isolated after 48 hours using octyl-glucoside/RIPA in the absence of protease inhibitors. […] Values shown are the mean ±s.e.m. from six independent experiments; asterisks (***) indicate P<0.001 as compared with DPEP-1 transfected cells (one-way ANOVA with the Neuman-Keuls post-test)[…]. Proteins from transfected cells were isolated after 48 hours using octyl-glucoside/RIPA lysis buffer and western blot analysis was performed to assess DPEP-1 expression using DPEP-1 antibody (Sigma). […]

[5] = Incubation in whole human blood, LC/MS of metabolites; format: in vitro ADME; conditions: 50 μg/mL, whole human blood (citrate or K2 EDTA), up to 120 min
Method: Plasma was separated for each sample and phosphoric acid added to stabilize peptide at each timepoint. Samples were assessed for LSALT and its' metabolites using LC/MS. LSALT metabolites were identified using PEAKS X and database searches against LSALT and the human proteome. […] Transfected cells were positively selected for using geneticin resistance and subcloned to generate stably transfected DPEP1 clones. Stably transfected DPEP1 HEK cells were resuspended and incubated with biotinylated LSALT fragment peptides (50 μM) for 1 hour at 37° C. before PBS washes. Bound biotinylated peptide was detected via secondary streptavidin fluorescent conjugate (30 min. incubation at 37° C.) and washed with PBS. Peptide binding was analyzed via flow cytometer. Percentage of peptide binding was compared relative to negative control. […] LysM^(gfp) mice were subjected to endotoxemia via intravenous injection of lipopolysaccharide (LPS, O111:B4) at a dose of 5 mg/kg. The kidney was imaged using multiphoton microscopy at 4 hours post-injection. Various LSALT fragments was used intravenously to pretreat mice 10 min. before LPS injection. Inflammation was quantified by manual counting of monocyte adhesion in single microscopy fields (LPS vs. Fragment C; n=3-6 fields/group; ***:p=0.004).

binding of fluorescently labelled peptide to rat DPEP-1 transfected Cos-1 cells [2]: Binds
interaction with DPEP1 by biotin transfer [3]: able to interact with DPEP1
Substance: H-LSALTPSPSWLKYKAL [LSALT]
levels of serum cytokines in response to LPS [1]: attenuates the levels of a number of different serum cytokines
plasma IL-10 in response to LPS [1]: increases the production of the anti-inflammatory mediator IL-10
binding of fluorescently labelled peptide to human DPEP-1 transfected Cos-1 cells [4]: Binds; also recorded: Fluorescent peptide binding is only seen with DPEP1 transfection
metabolism in whole blood [5]: metabolized in whole blood into smaller fragments
